Measured values taken from ChEMBL document CHEMBL4831516, “Development of Membrane-Active Honokiol/Magnolol Amphiphiles as Potent Antibacterial Agents against Methicillin-Resistant Staphylococcus aureus (MRSA)” (J Med Chem, 2021).
Activity calls are given as the source filed them. The rule behind the calls is not given here.

Legend:
[1] = Toxicity in BALB/c mouse assessed as abnormalities and pathological changes in kidney at 25 mg/kg, sc once a day for 3 days by H and E staining based assay; format: organism-based; conditions: in vivo, 72 h, time 3 day
[2] = tested on: Staphylococcus aureus; assay: Antibacterial activity against methicillin-resistant Staphylococcus aureus clinical isolate M-14 assessed as inhibition of visible growth incubated for 16 to 18 hrs by CLSI method; format: functional; conditions: time 16-18 hrs, read-out: MIC100
[3] = tested on: Staphylococcus aureus; assay: Antibacterial activity against methicillin-resistant Staphylococcus aureus clinical isolate M-18 assessed as inhibition of visible growth incubated for 16 to 18 hrs by CLSI method; format: functional; conditions: time 16-18 hrs, read-out: MIC100
[4] = tested on: Staphylococcus aureus; assay: Antibacterial activity against methicillin-resistant Staphylococcus aureus clinical isolate 16 infected in BALB/c mouse assessed as reduction in inflammatory cell inflammation in spleen at 25 mg/kg, sc once a day for 3 days by H and E staining based assay; format: functional, organism-based; conditions: time 3.0 day
[5] = tested on: Staphylococcus aureus; assay: Antibiofilm activity against Staphylococcus aureus assessed as destruction of biofilm at 64 ug/ml incubated for 16 to 18 hrs by crystal violet based biofilm disruption assay relative to control; format: functional; conditions: dose 64 µg/ml; time 16-18 hrs
[6] = Selectivity index, HC50 for hemolytic activity in sheep RBC to MIC for antibacterial activity against Staphylococcus aureus ATCC29213; format: toxicity; conditions: sheep red blood cells (erythrocytes), read-out: Selectivity Index
[7] = tested on: Staphylococcus aureus; assay: Antibacterial activity against methicillin-resistant Staphylococcus aureus clinical isolate M-15 assessed as inhibition of visible growth incubated for 16 to 18 hrs by CLSI method; format: functional; conditions: time 16-18 hrs, read-out: MIC100
[8] = tested on: L02; assay: Cytotoxicity against human LO2 cells assessed as cell morphology at 128 ug/ml incubated for 24 hrs by live/dead staining based fluorescence microscopy; conditions: l02, 24 h, dose 128 µg/ml
[9] = tested on: Micrococcus luteus; assay: Antibacterial activity against Micrococcus luteus assessed as inhibition of visible growth incubated for 16 to 18 hrs by CLSI method; format: functional; conditions: time 16-18 hrs, read-out: MIC100
[10] = tested on: Cell membrane; assay: Induction of cell membrane permeability in methicillin-resistant Staphylococcus aureus clinical isolate 16 assessed as fluorescent intensity by SYTOX dye based fluorescence assay; format: subcellular
[11] = tested on: Cell membrane; assay: Induction of membrane morphological changes in methicillin-resistant Staphylococcus aureus clinical isolate 16 assessed as intact and smooth surface at 10 ug/ml by scanning electron microscopy; format: subcellular; conditions: dose 10.0 µg/ml
[12] = tested on: Staphylococcus aureus; assay: Antibacterial activity against methicillin-resistant Staphylococcus aureus clinical isolate M-19 assessed as inhibition of visible growth incubated for 16 to 18 hrs by CLSI method; format: functional; conditions: time 16-18 hrs, read-out: MIC100
[13] = tested on: Cell membrane; assay: Induction of membrane disruption in methicillin-resistant Staphylococcus aureus clinical isolate 16 assessed as increase in green fluorescence at 10 ug/ml by SYTOX green staining based confocal laser scanning microscopy; format: subcellular; conditions: dose 10.0 µg/ml
[14] = tested on: Staphylococcus aureus; assay: Antibacterial activity against methicillin-resistant Staphylococcus aureus clinical isolate M-13 assessed as inhibition of visible growth incubated for 16 to 18 hrs by CLSI method; format: functional; conditions: time 16-18 hrs, read-out: MIC100
[15] = Toxicity in BALB/c mouse assessed as abnormalities and pathological changes in liver at 25 mg/kg, sc once a day for 3 days by H and E staining based assay; format: organism-based; conditions: in vivo, 72 h, time 3 day
[16] = tested on: Staphylococcus aureus; assay: Antibiofilm activity against Staphylococcus aureus assessed as reduction in colony forming unit at 64 ug/ml incubated for 16 to 18 hrs by biofilm disruption assay; format: functional; conditions: dose 64 µg/ml; time 16-18 hrs
[17] = tested on: Staphylococcus aureus; assay: Antibacterial activity against methicillin-resistant Staphylococcus aureus clinical isolate 16 infected in BALB/c mouse assessed as reduction in bacterial load in spleen at 25 mg/kg, sc once a day for 3 days by H and E staining based assay; format: functional, organism-based; conditions: time 3.0 day
[18] = tested on: Staphylococcus aureus; assay: Antibacterial activity against methicillin-resistant Staphylococcus aureus clinical isolate 16 infected in BALB/c mouse assessed as reduction in bacterial load in kidney at 25 mg/kg, sc once a day for 3 days by H and E staining based assay; format: functional, organism-based; conditions: time 3.0 day
[19] = tested on: Staphylococcus aureus; assay: Bactericidal activity against methicillin-resistant Staphylococcus aureus clinical isolate 16 assessed as reduction in colony formation in early stage at 8 times of MIC measured within 30 mins by time-kill assay; format: functional, organism-based
[20] = tested on: Staphylococcus aureus; assay: Antibacterial activity against Staphylococcus aureus ATCC29213 assessed as inhibition of visible growth incubated for 16 to 18 hrs by CLSI method; format: functional; conditions: time 16-18 hrs, read-out: MIC100
[21] = tested on: Staphylococcus aureus; assay: Antibacterial activity against methicillin-resistant Staphylococcus aureus clinical isolate M-20 assessed as inhibition of visible growth incubated for 16 to 18 hrs by CLSI method; format: functional; conditions: time 16-18 hrs, read-out: MIC100
[22] = tested on: Cell membrane; assay: Induction of membrane disruption in methicillin-resistant Staphylococcus aureus clinical isolate 16 assessed as increase in red fluorescence at 10 ug/ml by PI staining based confocal laser scanning microscopy; conditions: dose 10.0 µg/ml
[23] = tested on: Staphylococcus aureus; assay: Bactericidal activity against methicillin-resistant Staphylococcus aureus clinical isolate 16 assessed as reduction in colony formation in late stage at 8 times of MIC measured within 2 hrs by time-kill assay; format: functional, organism-based
[24] = tested on: Enterococcus faecalis; assay: Antibacterial activity against Enterococcus faecalis ATCC29212 assessed as inhibition of visible growth incubated for 16 to 18 hrs by CLSI method; format: functional; conditions: time 16-18 hrs, read-out: MIC100
[25] = Hemolytic activity in sheep RBC assessed as hemolysis incubated for 1 hr; format: ADME, cell-based, Ovis aries, Erythrocyte; conditions: sheep red blood cells (erythrocytes)
[26] = tested on: Stenotrophomonas maltophilia; assay: Antibacterial activity against Stenotrophomonas maltophilia assessed as inhibition of visible growth incubated for 16 to 18 hrs by CLSI method; format: functional; conditions: time 16-18 hrs, read-out: MIC100
[27] = tested on: Staphylococcus aureus; assay: Antibiofilm activity against methicillin-resistant Staphylococcus aureus clinical isolate 16 assessed as decrease in viable bacteria in biofilm at 2 to 64 ug/ml incubated for 16 to 18 hrs by biofilm disruption assay; format: functional, organism-based; conditions: dose 2-64 µg/ml, time 16-18 hrs
[28] = tested on: Staphylococcus aureus; assay: Antibacterial activity against methicillin-resistant Staphylococcus aureus clinical isolate M-11 assessed as inhibition of visible growth incubated for 16 to 18 hrs by CLSI method; format: functional; conditions: time 16-18 hrs, read-out: MIC100
[29] = tested on: Cell membrane; assay: Induction of membrane disruption in methicillin-resistant Staphylococcus aureus clinical isolate 16 at 4 to 32 ug/ml measured for 16 mins by DiSC35 dye based fluorescence assay; format: subcellular; conditions: dose 4-32 µg/ml
[30] = tested on: Staphylococcus aureus; assay: Antibacterial activity against methicillin-resistant Staphylococcus aureus clinical isolate M-12 assessed as inhibition of visible growth incubated for 16 to 18 hrs by CLSI method; format: functional; conditions: time 16-18 hrs, read-out: MIC100
[31] = tested on: Staphylococcus aureus; assay: Antibiofilm activity against Staphylococcus aureus assessed as decrease in viable bacteria in biofilm at 2 to 64 ug/ml incubated for 16 to 18 hrs by biofilm disruption assay; format: functional, organism-based; conditions: dose 2-64 µg/ml, time 16-18 hrs
[32] = tested on: L02; assay: Cytotoxicity against human L02 cells assessed as cell viability at 128 ug/ml incubated for 24 hrs by CCK8 assay; format: cell-based; conditions: l02, 24 h, dose 128 µg/ml
[33] = tested on: Escherichia coli; assay: Antibacterial activity against Escherichia coli ATCC25922 assessed as inhibition of visible growth incubated for 16 to 18 hrs by CLSI method; format: functional; conditions: time 16-18 hrs, read-out: MIC100
[34] = tested on: Staphylococcus aureus; assay: Bactericidal activity against methicillin-resistant Staphylococcus aureus clinical isolate 16 assessed as reduction in colony formation at 1 times of MIC measured upto 8 hrs by time-kill assay; format: functional, organism-based; conditions: time hrs <=8
[35] = tested on: Salmonella enterica; assay: Antibacterial activity against Salmonella enterica 349812 assessed as inhibition of visible growth incubated for 16 to 18 hrs by CLSI method; format: functional; conditions: time 16-18 hrs, read-out: MIC100
[36] = tested on: Bacillus subtilis; assay: Antibacterial activity against Bacillus subtilis assessed as inhibition of visible growth incubated for 16 to 18 hrs by CLSI method; format: functional; conditions: time 16-18 hrs, read-out: MIC100
[37] = Toxicity in BALB/c mouse assessed as abnormalities and pathological changes in spleen at 25 mg/kg, sc once a day for 3 days by H and E staining based assay; format: organism-based; conditions: in vivo, 72 h, time 3 day

Structure (SMILES): C=CCc1ccc(OCCC[N+](C)(C)CC(=O)NCCCC)c(-c2ccc(OCCC[N+](C)(C)CC(=O)NCCCC)c(CC=C)c2)c1.[Br-].[Br-]
- Activity [1]: Non-Toxic
- MIC [2]: 1 µg/mL
- MIC [3]: 0.5 µg/mL
- Activity [4]: Active
- Activity [5]: 20%
- selectivity ratio [6]: 789
- MIC [7]: 0.5 µg/mL
- Activity [8]: Non-Toxic
- MIC [9]: 2 µg/mL
- Activity [10]: Dose-Dependent Effect
- Activity [11]: Active
- MIC [12]: 3 µg/mL
- Activity [13]: Active
- MIC [14]: 1 µg/mL
- Activity [15]: Non-Toxic
- Activity [16]: 3.8 log10CFU/ml
- Activity [17]: Active
- Activity [18]: Active
- Activity [19]: Active
- MIC [20]: 1 µg/mL
- MIC [21]: 3 µg/mL
- Activity [22]: Active
- Activity [23]: Active
- MIC [24]: 2 µg/mL
- HC50 at 1 h [25]: 789 µg/mL
- MIC [26]: 8 µg/mL
- Activity [27]: Active
- MIC [28]: 1 µg/mL
- Activity [29]: Active
- MIC [30]: 0.5 µg/mL
- Activity [31]: Active
- Activity [32]: Non-Toxic
- MIC [33]: 4 µg/mL
- Activity [34]: Active
- MIC [35]: 8 µg/mL
- MIC [36]: 1 µg/mL
- Activity [37]: Non-Toxic
